Measurements from patent publication US20240116985A1, “STAPLED PEPTIDES AND METHODS THEREOF” (priority 2020, published 2024).
In brackets after ≈: the same amount, converted by molar mass. Like-named read-outs stand apart in the source and are kept apart here.

What was measured:
[1] = biological target: T1, full-length beta-Catenin (Uniprot ID P35222) (Homo sapiens, UniProt P35222); test: Fluorescence polarization IC50 (beta-catenin / 5FAM-TCF4 10-53 competition); format: binding
T1 construct: 10 nM full-length beta-Catenin (Uniprot ID P35222)
T1 sequence (P35222 1-781): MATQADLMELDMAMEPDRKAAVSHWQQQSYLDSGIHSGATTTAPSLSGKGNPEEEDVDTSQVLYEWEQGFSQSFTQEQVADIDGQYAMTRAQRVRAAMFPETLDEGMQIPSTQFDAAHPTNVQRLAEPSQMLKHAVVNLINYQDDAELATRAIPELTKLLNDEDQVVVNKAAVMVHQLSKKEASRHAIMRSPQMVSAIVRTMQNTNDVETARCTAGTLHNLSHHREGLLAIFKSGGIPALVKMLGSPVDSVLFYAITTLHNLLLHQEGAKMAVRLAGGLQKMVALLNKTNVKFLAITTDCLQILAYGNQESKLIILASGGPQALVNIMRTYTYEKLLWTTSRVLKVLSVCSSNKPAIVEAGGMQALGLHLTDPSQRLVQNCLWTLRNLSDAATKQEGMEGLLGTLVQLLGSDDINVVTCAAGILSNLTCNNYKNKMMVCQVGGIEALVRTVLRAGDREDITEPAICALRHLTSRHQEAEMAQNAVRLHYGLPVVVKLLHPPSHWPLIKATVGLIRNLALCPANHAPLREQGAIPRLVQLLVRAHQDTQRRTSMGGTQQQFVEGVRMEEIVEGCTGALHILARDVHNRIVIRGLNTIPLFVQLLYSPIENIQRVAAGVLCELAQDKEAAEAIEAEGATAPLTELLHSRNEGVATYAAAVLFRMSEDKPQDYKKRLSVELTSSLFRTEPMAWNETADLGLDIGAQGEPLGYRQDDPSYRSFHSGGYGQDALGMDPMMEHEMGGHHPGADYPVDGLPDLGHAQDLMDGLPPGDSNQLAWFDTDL

[2] = CHI Log D procedure; format: physicochemical; details: for chromatographic logD: pH 7.4, CHI Log D; for CHI Log D: pH 7.4
[3] = Solubility in PBS; format: physicochemical
In short: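 HPLC quantitation of peptide remaining in the PBS supernatant after ultracentrifugation, referenced to a 50 μM solution in DMSO.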

[4] = biological target: T2, beta-catenin/TCF4 engagement (Homo sapiens, UniProt P35222); test: Nano-BRET target engagement assay (B-cat-Halo & TCF4-Luc in HEK293 cells); format: cell-based
T2 construct: expressed in transfected cells; host or cells: HEK293
T2 sequence (P35222 1-781): T1 sequence (P35222 1-781)

[5] = absolute IC50, read-out: NanoBRET Abs IC50
[6] = fluorescence polarization, read-out: beta-Catenin FP IC50

IC50 ([1]; read-out: beta-Catenin FP IC50) [nM] | chromatographic logD [2] | Solubility [3] [µM] | IC50 ([4]; read-out: NanoBRET Abs IC50) [nM] | Solubility ([3]; Solubility (uM)) [µM] | IC50 [4, 5] [nM] | IC50 [1, 6] [nM] | IC50 ([1]; read-out: FP EC50) [nM] | CHI Log D [2] | IC50 ([4]; Abs IC50, read-out: NanoBRET Abs IC50) [nM] | IC50 ([4]; read-out: NanoBRET IC50) [nM] | Compound
24 | 2.12 | 50 (≈ 96.1 µg/mL) | > 20000 |  |  |  |  |  |  |  | CC(=O)N1CCC[C@]12CC=CCCCC1(CCCC=CCCCOC(=O)N3CC[C@@](C(=O)N[C@@H](Cc4ccsc4)C(=O)N[C@@H](Cc4ccc5ccccc5c4)C(=O)N[C@@H](Cc4c[nH]cn4)C(N)=O)(C3)NC(=O)[C@H](CC(N)=O)NC(=O)[C@H](Cc3ccccc3)NC(=O)[C@H](C)NC(=O)[C@H](C)NC(=O)[C@H](CC(=O)O)NC(=O)[C@H](CC(=O)O)NC1=O)NC(=O)[C@H](CC(C)(C)C)NC(=O)[C@H](CC(=O)O)NC2=O (stereo partly drawn) [I-790, Ac-PL3-Asp-Npg-B5-Asp-Asp-Ala-Ala-Phe-Asn-PyrS2-3Thi-2NapA-His-NH2]
15 | 2.43 |  | 10400 | 44 (≈ 83.3 µg/mL) |  |  |  |  |  |  | CC(=O)N1CCC[C@]12CC=CCCCC1(CCCC=CCCCOC(=O)N3CC[C@@](C(=O)N[C@@H](Cc4ccccc4Cl)C(=O)N[C@@H](Cc4csc5ccccc45)C(=O)N[C@@H](C(N)=O)[C@H](C)O)(C3)NC(=O)[C@H](CO)NC(=O)[C@H](Cc3ccccc3)NC(=O)[C@H](C)NC(=O)[C@H](C)NC(=O)[C@H](CC(=O)O)NC(=O)[C@H](CC(=O)O)NC1=O)NC(=O)[C@H](CC(C)(C)C)NC(=O)[C@H](CC(=O)O)NC2=O (stereo partly drawn) [I-1032, Ac-PL3-Asp-Npg-B5-Asp-Asp-Ala-Ala-Phe-Ser-PyrS2-2C1F-BztA-dThr-NH2]
18 | 2.31 |  | 9200 | 41 (≈ 81 µg/mL) |  |  |  |  |  |  | COc1cccc(C[C@@H]2NC(=O)[C@H](C)NC(=O)[C@H](C)NC(=O)[C@H](CC(=O)O)NC(=O)[C@H](CC(=O)O)NC(=O)C3(CCCC=CCCCOC(=O)N4CC[C@@](C(=O)N[C@@H](Cc5ccccc5Cl)C(=O)N[C@@H](Cc5csc6ccccc56)C(=O)N[C@@H](CCC(N)=O)C(N)=O)(C4)NC(=O)[C@H](CC(C)C)NC2=O)CCCC=CC[C@]2(CCCN2C(C)=O)C(=O)N[C@@H](CC(=O)O)C(=O)N[C@@H](CC(C)(C)C)C(=O)N3)c1 (stereo partly drawn) [I-1121, Ac-PL3-Asp-Npg-B5-Asp-Asp-Ala-Ala-3OMeF-Leu-PyrS2-2C1F-BztA-Gln-NH2]
41 | 2.65 | 10 (≈ 20.5 µg/mL) |  |  | 8800 |  |  |  |  |  | CC(=O)N1CCC[C@]12CC=CCCCC1(CCCC=CCCCOC(=O)N3CC[C@@](C(=O)N[C@@H](Cc4ccccc4Cl)C(=O)N[C@@H](Cc4csc5ccccc45)C(=O)N[C@@H](CO)C(N)=O)(C3)NC(=O)[C@H](Cc3ccccc3)NC(=O)[C@H](Cc3ccccc3)NC(=O)[C@H](C)NC(=O)[C@H](C)NC(=O)[C@H](CN(CC(=O)O)CC(F)(F)F)NC(=O)[C@H](CC(=O)O)NC1=O)NC(=O)[C@H](CC(C)(C)C)NC(=O)[C@H](CC(=O)O)NC2=O (stereo partly drawn) [I-990, Ac-PL3-Asp-Npg-B5-Asp-TfeGA-Ala-Ala-Phe-Phe-PyrS2-2C1F-BztA-Ser-NH2]
 |  | 50 (≈ 91.7 µg/mL) |  |  | 28800 | 33 | 33 | 2.004 |  |  | CC(=O)N1CCC[C@]12CC=CCCCC1(CCCC=CCCCCCC[C@@](C)(C(=O)N[C@@H](Cc3ccsc3)C(=O)N[C@@H](Cc3csc4ccccc34)C(=O)N[C@@H](CCC(N)=O)C(N)=O)NC(=O)[C@H](CC(N)=O)NC(=O)[C@H](Cc3ccccc3)NC(=O)[C@H](C)NC(=O)[C@H](C)NC(=O)[C@H](CCC(=O)O)NC(=O)[C@H](CC(=O)O)NC1=O)NC(=O)[C@H](C)NC(=O)[C@H](CC(=O)O)NC2=O (stereo partly drawn) [I-519, Ac-PL3-Asp-Ala-B5-Asp-Glu-Ala-Ala-Phe-Asn-S8-3Thi-BztA-Gln-NH2]
 |  | 21 (≈ 40.8 µg/mL) |  |  | 14700 | 5 |  | 2.093 |  |  | CC(=O)N1CCC[C@]12CC=CCCCC1(CCCC=CCCCOC(=O)N3CC[C@@](C(=O)N[C@@H](Cc4ccsc4)C(=O)N[C@@H](Cc4csc5ccccc45)C(=O)N[C@@H](Cc4c[nH]cn4)C(N)=O)(C3)NC(=O)[C@H](CC(N)=O)NC(=O)[C@H](Cc3ccccc3)NC(=O)[C@H](C)NC(=O)[C@H](C)NC(=O)[C@H](CCC(=O)O)NC(=O)[C@H](CC(=O)O)NC1=O)NC(=O)[C@H](CC(C)(C)C)NC(=O)[C@H](CC(=O)O)NC2=O (stereo partly drawn) [I-697, Ac-PL3-Asp-Npg-B5-Asp-Glu-Ala-Ala-Phe-Asn-PyrS2-3Thi-BztA-His-NH2]
 | 2.76 | 50 (≈ 99 µg/mL) |  |  |  | 57 |  |  | 11900 |  | CC(=O)N1CCC[C@]12CC=CCCCC1(CCCC=CCCCCCC[C@@](C)(C(=O)N[C@@H](Cc3ccccc3)C(=O)N[C@@H](Cc3csc4ccccc34)C(=O)N[C@@H](CCC(N)=O)C(N)=O)NC(=O)[C@H](CC(N)=O)NC(=O)[C@H](Cc3ccccc3)NC(=O)[C@H](C)NC(=O)[C@H](C)NC(=O)[C@H](CN(CC(=O)O)CC(F)(F)F)NC(=O)[C@H](CC(=O)O)NC1=O)NC(=O)[C@H](CC(C)(C)C)NC(=O)[C@H](CC(=O)O)NC2=O (stereo partly drawn) [I-703, Ac-PL3-Asp-Npg-B5-Asp-TfeGA-Ala-Ala-Phe-Asn-S8-Phe-BztA-Gln-NH2]
26 | 3.17 |  | 7700 | 28 (≈ 52.2 µg/mL) |  |  |  |  |  |  | CC(=O)N1CCC[C@]12CC=CCCCC1(CCCC=CCCCCCC[C@@](C)(C(=O)N[C@@H](Cc3ccccc3Cl)C(=O)N[C@@H](Cc3csc4ccccc34)C(=O)N[C@@H](C(N)=O)[C@H](C)O)NC(=O)[C@H]([C@@H](C)O)NC(=O)[C@H](Cc3ccccc3)NC(=O)[C@H](C)NC(=O)[C@H](C)NC(=O)[C@H](CC(=O)O)NC(=O)[C@H](CC(=O)O)NC1=O)NC(=O)[C@H](CC(C)(C)C)NC(=O)[C@H](CC(=O)O)NC2=O (stereo partly drawn) [I-1092, Ac-PL3-Asp-Npg-B5-Asp-Asp-Ala-Ala-Phe-Thr-S8-2C1F-BztA-dThr-NH2]
18 | 2.29 |  | > 20000 | 42 (≈ 83.6 µg/mL) |  |  |  |  |  |  | CC(=O)N1CCC[C@]12CC=CCCCC1(CCCC=CCCCOC(=O)N3CC[C@@](C(=O)N[C@@H](Cc4ccccc4Cl)C(=O)N[C@@H](Cc4csc5ccccc45)C(=O)N[C@@H](CCC(N)=O)C(N)=O)(C3)NC(=O)[C@H](CO)NC(=O)[C@H](Cc3ccccc3)NC(=O)[C@H](C)NC(=O)[C@H](C)NC(=O)[C@H](CC(=O)O)NC(=O)[C@H](CC(=O)O)NC1=O)NC(=O)[C@H](Cc1cccc3ccccc13)NC(=O)[C@H](CC(=O)O)NC2=O (stereo partly drawn) [I-1108, Ac-PL3-Asp-1NapA-B5-Asp-Asp-Ala-Ala-Phe-Ser-PyrS2-2C1F-BztA-Gln-NH2]
8 | 2.26 |  |  | 24 (≈ 49.4 µg/mL) |  |  |  |  |  | 4000 | CC(=O)N1CCC[C@]12CC=CCCCC1(CCCC=CCCCOC(=O)N3CC[C@@](C(=O)N[C@@H](Cc4ccccc4Cl)C(=O)N[C@@H](Cc4csc5ccccc45)C(=O)N[C@@H](CCC(N)=O)C(N)=O)(C3)NC(=O)[C@H](CC(N)=O)NC(=O)[C@H](Cc3ccccc3)NC(=O)[C@H](C)NC(=O)[C@H](C)NC(=O)[C@H](CN(CC(=O)O)CC(F)(F)F)NC(=O)[C@H](CC(=O)O)NC1=O)NC(=O)[C@H](CC(C)(C)C)NC(=O)[C@H](CC(=O)O)NC2=O (stereo partly drawn) [I-921, Ac-PL3-Asp-Npg-B5-Asp-TfeGA-Ala-Ala-Phe-Asn-PyrS2-2C1F-BztA-Gln-NH2]
14 | 2.11 |  | > 20000 | 34 (≈ 73.4 µg/mL) |  |  |  |  |  |  | CC(=O)N1CCC[C@]12CC=CCCCC1(CCCC=CCCCOC(=O)N3CC[C@@](C(=O)N[C@@H](Cc4ccsc4)C(=O)N[C@@H](Cc4csc5ccccc45)C(=O)N[C@@H](CCC(N)=O)C(N)=O)(C3)NC(=O)[C@H](CC(N)=O)NC(=O)[C@H](Cc3ccccc3)NC(=O)[C@H](CCCCNC(=O)CCc3cccc4ccccc34)NC(=O)[C@H](C)NC(=O)[C@H](CC(=O)O)NC(=O)[C@H](CC(=O)O)NC1=O)NC(=O)[C@H](CC(C)(C)C)NC(=O)[C@H](CC(=O)O)NC2=O (stereo partly drawn) [I-884, Ac-PL3-Asp-Npg-B5-Asp-Asp-Ala-[1NapPr]Lys-Phe-Asn-PyrS2-3Thi-BztA-Gln-NH2]
14 | 2.22 |  | 27000 | 48 (≈ 89.4 µg/mL) |  |  |  |  |  |  | CC(=O)N1CCC[C@]12CC=CCCCC1(CCCC=CCCCOC(=O)N3CC[C@@](C(=O)N[C@@H](Cc4ccccc4F)C(=O)N[C@@H](Cc4csc5ccccc45)C(=O)N[C@@H](CO)C(N)=O)(C3)NC(=O)[C@H](CO)NC(=O)[C@H](Cc3ccccc3)NC(=O)[C@H](C)NC(=O)[C@H](C)NC(=O)[C@H](CC(=O)O)NC(=O)[C@H](CC(=O)O)NC1=O)NC(=O)[C@H](CC(C)(C)C)NC(=O)[C@H](CC(=O)O)NC2=O (stereo partly drawn) [I-1101, Ac-PL3-Asp-Npg-B5-Asp-Asp-Ala-Ala-Phe-Ser-PyrS2-2FF-BztA-Ser-NH2]
